In patent US8697747B2, “Enhancing coagulation or reducing fibrinolysis” (THe UAB Research Foundation, priority 2009, dated 2014):

Key:
pooled normal plasma = experiment: Thrombelastographic coagulation kinetics, Celite-activated normal plasma; assay type: biochemical, human; settings: 100 μM, mean ± SD, n=8
Description: Pooled normal plasma (George King Bio-Medical, Overland Park, Kans.) anticoagulated with sodium citrate was utilized for experimentation. […] Factor XIII (FXIII) deficient plasma anticoagulated with sodium citrate was also obtained from George King Bio-Medical (Overland Park, Kans.).
Plasma Sample Composition. The final volume for all subsequently described plasma sample mixtures was 359.4 μL. […] (Motterlini et al., Expert Opin Investig Drugs, 14:1305-1318 (2005), which is incorporated by reference herein in its entirety).
Clot Lifespan Model Analyses. Plasma sample mixtures were placed in a disposable cup in a computer-controlled THROMBELASTOGRAPH® hemostasis system (Model 5000, Haemoscope Corp., Niles, Ill.), with addition of CaCl2 as the last step to initiate clotting. Data were collected for 15 minutes, as normal plasma completes thrombus formation within this interval in this system (Dong et al., Eur J Pharmacol 590:99-104 (2008)).
Statistical Analyses. Data are presented as mean±SD. All conditions described were represented with n=8 experiments, as n=6-8 typically provides statistical power>0.8 in similar analyses (Nielsen et al., Acta Anaesthesiol Scand 49:222-231 (2005) and Nielsen et al., Blood Coagul Fibrinolysis 17:75-81 (2006)). Analyses of the effects of CORM-2 and iCORM-2 on thrombelastographic variables were conducted using one way analysis of variance with the Holm-Sidak test used for post hoc comparisons. Graphical representation of the data was generated with commercially available software (Origin 7.5, OriginLab Corp., Northampton, Mass.). A P value of ≦0.05 was considered significant.

[1] = test system: prothrombin deficient plasma; experiment: Thrombelastography in prothrombin deficient plasma with purified prothrombin; assay type: biochemical, human; settings: mean ± SD
Description: Plasma types, purified proteins and compounds. Prothrombin deficient plasma (George King Bio-Medical, Overland Park, Kans.) anticoagulated with sodium citrate was utilized for experimentation concerning the effects of CORM-2 on prothrombin. Purified prothrombin (Enzyme Research Laboratories, South Bend, Ind.) that was 95% pure (10.4 mg/mL, 11.1 U/mg, suspended in 20 mM Tris-HCl in 0.1M NaCl at pH 7.4) was used for experimentation. Fibrinogen deficient plasma (Affinity Biologicals, Inc., Ancaster, Ontario, Canada) anticoagulated with sodium citrate was used in experiments investigating the effects of CORM-2 on fibrinogen. […] CORM-2 and dimethyl sulfoxide (DMSO) were obtained from Sigma-Aldrich, St. Louis, Mo.
Exposure of purified prothrombin to CORM-2. In order to determine if pre-exposure of prothrombin with CORM-2 would enhance coagulation kinetics in prothrombin deficient plasma, 396 μL of pure prothrombin solution was combined with 4 μL of either DMSO or CORM-2 in DMSO for a final concentration of 0 or 100 μM CORM-2. This solution was incubated for 5 min at 37° C. prior to being added to prothrombin deficient plasma for thrombelastographic analyses. A volume of 3.1 μL of incubated solution was added to the final reaction mixture subsequently presented for a final prothrombin activity of 1 U/mL.
Prothrombin deficient plasma experiments. The final volume for experiments involving prothrombin deficient plasma was 359.1-360.7 μL. In experiments involving pre-exposure of prothrombin to 0 or 100 μM CORM-2 (n=7 per concentration), the sample consisted of 326 μL of prothrombin deficient plasma, 3.1 μL of prothrombin solution, 10 μL of tissue factor reagent (0.1% final concentration in dH2O; Instrumentation Laboratory, Lexington, Mass.), and 20 μL of 200 mM CaCl2. In experiments involving simple CORM-2 addition (positive control) to the reactants, the sample mixture consisted of 324 μL of prothrombin deficient plasma, 3.1 μL of prothrombin solution, 3.6 μL of DMSO or CORM-2 in DMSO (final CORM-2 concentration 0 or 100 μM, n=8 per concentration), 10 μL of tissue factor reagent (0.1% final concentration), and 20 μl of 200 mM CaCl2.
Thrombelastographic monitoring. Plasma sample mixtures were placed in a disposable cup in a computer-controlled THROMBELASTOGRAPH® hemostasis system (Model 5000, Haemoscope Corp., Niles, Ill.), with addition of CaCl2 as the last step to initiate clotting. Data were collected until clot strength stabilized. The following previously described variables (Examples 1-3) were determined at 37° C.: Time to maximum rate of thrombus generation (TMRTG): This is the time interval (sec) observed prior to maximum speed of clot growth. Maximum rate of thrombus generation (MRTG): This is the maximum velocity of clot growth observed (dynes/cm^2/sec). Total Thrombus Generation (TTG): This is the total area under the velocity curve during clot growth (dynes/cm^2), representing the amount of clot strength generated during clot growth.
Statistical Analyses. Data obtained from experiments involving prothrombin deficient plasma are presented as mean±SD. Typically, n=6-8 provides statistical power >0.8 in similar analyses (Examples 1 and 2). Analyses of the effects of CORM-2 on thrombelastographic variables were conducted using unpaired, two-tailed Student's t-tests. A P value of <0.05 was considered significant. Graphical representation of the thrombelastographic data derived from experiments with […] deficient plasma was generated with commercially available software (SigmaPlot 11.0, Systat Software, Inc., San Jose, Calif.). Coagulation kinetic model equations were derived with the same software. The difference between the mean values of MRTG or TTG in samples exposed to 0 or 100 μM CORM-2 were determined and expressed as percent difference secondary to CORM-2 exposure in the […] deficient plasma experiments.

[2] = 100 μM CORM-2 added to prothrombin deficient plasma mixed with prothrombin, n=8
[3] = purified prothrombin pre-exposed to 100 μM CORM-2, then added to prothrombin deficient plasma, n=7

[C-]#[O+].[C-]#[O+].[C-]#[O+].[C-]#[O+].[C-]#[O+].[C-]#[O+].[Cl][Ru][Cl].[Cl][Ru][Cl] [CORM-2, tricarbonyldichlororuthenium (II) dimer]
MRTG (maximum rate of thrombus generation) (pooled normal plasma): 13.7 ± 1.3 dynes/cm^2/sec | TMRTG (time to maximum rate of thrombus generation) (pooled normal plasma): 188 ± 18 s | TTG (total thrombus generation) (pooled normal plasma): 248 ± 17 dynes/cm^2 | MRTG (maximum rate of thrombus generation) [1, 2]: 9.17 ± 0.36 dynes/cm^2/sec | TMRTG (time to maximum rate of thrombus generation) [1, 2]: 1.85 ± 0.04 min | TTG (total thrombus generation) [1, 2]: 152 ± 7 dynes/cm^2 | MRTG (maximum rate of thrombus generation) [1, 3]: 4.65 ± 0.99 dynes/cm^2/sec | TMRTG (time to maximum rate of thrombus generation) [1, 3]: 2.15 ± 0.56 min | TTG (total thrombus generation) [1, 3]: 88 ± 3 dynes/cm^2
